In patent US8816052B2, “Mutant apoprotein of photoprotein with low calcium sensitivity” (JNC Corporation, priority 2011, dated 2014):

Assays:
Type in all cases: biochemical
[1] = molecular target: T1, Native Aequorin (Aequorea victoria, UniProt P02592); assay: Substrate specificity: semi-synthetic aequorin from coelenterazine analogue and purified apoaequorin; conditions: for Luminescence Intensity for 60 Secs: CTZ = 100; for Relative Luminescence Intensity: CTZ = 100, 50 mM calcium solution
T1 construct: His tag (from the vector name piP-His-HE); made in house
T1 sequence (P02592 9-196 limits assumed): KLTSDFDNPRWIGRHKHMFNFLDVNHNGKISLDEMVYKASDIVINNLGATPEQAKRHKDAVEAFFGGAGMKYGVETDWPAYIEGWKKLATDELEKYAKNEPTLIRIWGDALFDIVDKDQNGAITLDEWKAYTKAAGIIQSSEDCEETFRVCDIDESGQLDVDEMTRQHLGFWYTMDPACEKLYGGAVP
Procedure: (§1) AM20 was prepared to examine the properties. Specifically, 1 ml of 30 mM Tris-HCl (pH 7.6) containing 10 mM EDTA was mixed with 2-mercaptoethanol (1 μl) and a solution of the coelenterazine analogue (1 μg/μl) dissolved in ethanol. Then, 10 μl of the purified apoaequorin or recombinant mutant apoaequorin AM20 was added to the mixture, which was allowed to stand on ice (4° C.) for 5 hours to perform the regeneration reaction. […] The half decay time was determined from the luminescence patterns.

[2] = molecular target: T2, Mutant Aequorin AM20 (Aequorea victoria, UniProt P02592, H34Q/K37A/N33D/S39T/V32K); conditions: for Half Decay Time / Luminescence Intensity for 60 Secs / Relative Luminescence Intensity: Mutant Aequorin AM20; for Luminescence Intensity for 60 Secs / Relative Luminescence Intensity: CTZ = 100; for Relative Luminescence Intensity: 50 mM calcium solution; for half decay time of the luminescence of the semi-synthetic aequorin: analogue as light-emitting substrate, statement in words
T2 construct: OmpA secretory signal peptide (N); histidine tag (N); made in house; host or cells: Escherichia coli strain WA802
Procedure: as §1

[3] = Luminescence activity and half decay time of mutant aequorins regenerated from E. coli extracts; conditions: E. coli JM83 extract regenerated with coelenterazine, final calcium 25 mM
Procedure: To express in Escherichia coli the mutant apoaequorin expression vector having the replaced other EF hand loop sequence which was constructed in (2) above, the mutant apoaequorin expression vector was transfected to Escherichia coli JM83 in a conventional manner. The transformants obtained were inoculated into 10 ml of LB liquid medium (10 g of bacto-tryptone, 5 g of yeast extract and 5 g of sodium chloride, per liter of water, pH 7.2) containing ampicillin (50 μg/ml) and cultured at 37° C. for 18 hours. […] Subsequently, 2-mercaptoethanol (1 μl) (manufactured by Wako Pure Chemical Industry) and a solution of substrate coelenterazine in ethanol (1 μg/μl) (JNC Corporation, hereinafter the same) were mixed with the recombinant mutant apoaequorin extract. The mixture was allowed to stand on ice (4° C.) for 18 hours thereby to regenerate into the mutant aequorin. […] The final calcium level in the reaction solution was 25 mM. The luminescence activity was expressed by relative activity (%) to the maximum intensity (Imax).

T2 sequence (P02592 9-196 V32K/N33D/H34Q/K37A/S39T): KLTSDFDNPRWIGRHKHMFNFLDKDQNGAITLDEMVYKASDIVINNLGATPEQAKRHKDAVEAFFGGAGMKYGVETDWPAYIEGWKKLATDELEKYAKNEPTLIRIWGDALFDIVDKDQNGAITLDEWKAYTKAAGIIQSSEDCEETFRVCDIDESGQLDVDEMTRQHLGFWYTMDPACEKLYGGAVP

Cc1ccc(Cc2nc3c(Cc4ccccc4)[nH]c(-c4ccc(O)cc4)cn-3c2=O)cc1 [me-CTZ, me-coelenterazine]
Half Decay Time [1]: 5.00 s
Luminescence Intensity for 60 Secs [1]: 45.0%
Relative Luminescence Intensity [1]: 5.8%
Half Decay Time [2]: >60 s
Luminescence Intensity for 60 Secs [2]: 15.4%
Relative Luminescence Intensity [2]: 6.8%
half decay time of the luminescence of the semi-synthetic aequorin [2]: extremely prolonged

Cc1cccc(Cc2nc3c(Cc4ccccc4)[nH]c(-c4ccc(O)cc4)cn-3c2=O)c1 [3me-CTZ, 3me-coelenterazine]
Half Decay Time [1]: 0.51 s
Luminescence Intensity for 60 Secs [1]: 21.2%
Relative Luminescence Intensity [1]: 35.0%
Half Decay Time [2]: 3.69 s
Luminescence Intensity for 60 Secs [2]: 35.5%
Relative Luminescence Intensity [2]: 125%

COc1ccc(Cc2nc3c(Cc4ccccc4)[nH]c(-c4ccc(O)cc4)cn-3c2=O)cc1 [meo-CTZ, meo-coelenterazine]
Half Decay Time [1]: 1.63 s
Luminescence Intensity for 60 Secs [1]: 60.1%
Relative Luminescence Intensity [1]: 22.3%
Half Decay Time [2]: 18.35 s
Luminescence Intensity for 60 Secs [2]: 35.6%
Relative Luminescence Intensity [2]: 26.6%
half decay time of the luminescence of the semi-synthetic aequorin [2]: extremely prolonged

O=c1c(Cc2ccc(C(F)(F)F)cc2)nc2c(Cc3ccccc3)[nH]c(-c3ccc(O)cc3)cn1-2 [cf3-CTZ, cf3-coelenterazine]
Half Decay Time [1]: 5.95 s
Luminescence Intensity for 60 Secs [1]: 48.6%
Relative Luminescence Intensity [1]: 6.3%
Half Decay Time [2]: >60 s
Luminescence Intensity for 60 Secs [2]: 18.6%
Relative Luminescence Intensity [2]: 7.5%
half decay time of the luminescence of the semi-synthetic aequorin [2]: extremely prolonged

Bis-coelenterazine [Bis-CTZ]
Luminescence Intensity for 60 Secs [1]: 0.0%
Relative Luminescence Intensity [1]: 0.0%
Luminescence Intensity for 60 Secs [2]: 0.0%
Relative Luminescence Intensity [2]: 0.0%

Oc1ccc(-c2cn3c(O)c(Cc4ccccc4)nc3c(Cc3ccccc3)n2)cc1 [h-CTZ, h-coelenterazine]
Half Decay Time [1]: 0.69 s
Luminescence Intensity for 60 Secs [1]: 70.1%
Relative Luminescence Intensity [1]: 87.9%
Half Decay Time [2]: 2.98 s
Luminescence Intensity for 60 Secs [2]: 45.4%
Relative Luminescence Intensity [2]: 220%

COc1cccc(Cc2nc3c(Cc4ccccc4)[nH]c(-c4ccc(O)cc4)cn-3c2=O)c1 [3meo-CTZ, 3meo-coelenterazine]
Half Decay Time [1]: 0.52 s
Luminescence Intensity for 60 Secs [1]: 35.6%
Relative Luminescence Intensity [1]: 64.9%
Half Decay Time [2]: 1.43 s
Luminescence Intensity for 60 Secs [2]: 25.0%
Relative Luminescence Intensity [2]: 266%

ameh-coelenterazine [αmeh-CTZ]
Half Decay Time [1]: 0.35 s
Luminescence Intensity for 60 Secs [1]: 0.9%
Relative Luminescence Intensity [1]: 2.2%
Half Decay Time [2]: 0.61 s
Luminescence Intensity for 60 Secs [2]: 0.9%
Relative Luminescence Intensity [2]: 19.4%

O=c1c(Cc2ccccc2)nc2c(CC3CCCC3)[nH]c(-c3ccc(O)cc3)cn1-2 [hcp-CTZ, hcp-coelenterazine]
Half Decay Time [1]: 0.51 s
Luminescence Intensity for 60 Secs [1]: 14.3%
Relative Luminescence Intensity [1]: 20.5%
Half Decay Time [2]: 0.61 s
Luminescence Intensity for 60 Secs [2]: 7.6%
Relative Luminescence Intensity [2]: 187%

et-coelenterazine [et-CTZ]
Half Decay Time [1]: 1.21 s
Luminescence Intensity for 60 Secs [1]: 44.1%
Relative Luminescence Intensity [1]: 27.3%
Half Decay Time [2]: 1.94 s
Luminescence Intensity for 60 Secs [2]: 33.6%
Relative Luminescence Intensity [2]: 56.7%

i-coelenterazine [i-CTZ]
Half Decay Time [1]: 11.42 s
Luminescence Intensity for 60 Secs [1]: 65.3%
Relative Luminescence Intensity [1]: 5.0%
Half Decay Time [2]: >60 s
Luminescence Intensity for 60 Secs [2]: 9.8%
Relative Luminescence Intensity [2]: 3.6%
half decay time of the luminescence of the semi-synthetic aequorin [2]: extremely prolonged

Oc1ccc(Cc2nc3c(Cc4ccccc4)nc(-c4ccc(O)cc4)cn3c2O)cc1 [CTZ, coelenterazine]
Half Decay Time [1]: 0.81 s
Luminescence Intensity for 60 Secs [1]: 100%
Relative Luminescence Intensity [1]: 100%
Half Decay Time [2]: 14.12 s
Luminescence Intensity for 60 Secs [2]: 100%
Relative Luminescence Intensity [2]: 100%

n-coelenterazine [n-CTZ]
Half Decay Time [1]: 4.71 s
Luminescence Intensity for 60 Secs [1]: 24.0%
Relative Luminescence Intensity [1]: 3.6%
Half Decay Time [2]: 44.04 s
Luminescence Intensity for 60 Secs [2]: 1.9%
Relative Luminescence Intensity [2]: 1.0%
half decay time of the luminescence of the semi-synthetic aequorin [2]: extremely prolonged

O=c1c(Cc2cccc(O)c2)nc2c(Cc3ccccc3)[nH]c(-c3ccc(O)cc3)cn1-2 [3iso-CTZ, 3iso-coelenterazine]
Half Decay Time [1]: 0.24 s
Luminescence Intensity for 60 Secs [1]: 13.4%
Relative Luminescence Intensity [1]: 51.6%
Half Decay Time [2]: 0.66 s
Luminescence Intensity for 60 Secs [2]: 9.2%
Relative Luminescence Intensity [2]: 224%

B1: pAM2 + X: aequorin expressed with vector pAM2+X; EF hand loop [I] DVNHNGKISLDE (SEQ ID NO: 13); native aequorin reference (protein)
chain: MTMITPSCKLTSDFDNPRWIGRHKHMFNFLDVNHNGKISLDEMVYKASDIVINNLGATPEQAKRHKDAVEAFFGGAGMKYGVETDWPAYIEGWKKLATDELEKYAKNEPTLIRIWGDALFDIVDKDQNGAITLDEWKAYTKAAGIIQSSEDCEETFRVCDIDESGQLDVDEMTRQHLGFWYTMDPACEKLYGGAVP
Relative Luminescence Activity ([3]; 50 mM calcium solution added, measured 30 seconds, relative to maximum intensity (Imax)): 100.0%
Half Decay Time ([3]; time until luminescence reaches half of maximum intensity): 1.3 s
